The record followed here is ChEMBL document CHEMBL1149501, “Selective COX-2 inhibitors. Part 1: synthesis and biological evaluation of phenylazobenzenesulfonamides” (Bioorg Med Chem Lett, 2006).

In assay [1] the target is T1, Prostaglandin G/H synthase 1 (Ovis aries, UniProt P05979).
T1 sequence (P05979 whole entry): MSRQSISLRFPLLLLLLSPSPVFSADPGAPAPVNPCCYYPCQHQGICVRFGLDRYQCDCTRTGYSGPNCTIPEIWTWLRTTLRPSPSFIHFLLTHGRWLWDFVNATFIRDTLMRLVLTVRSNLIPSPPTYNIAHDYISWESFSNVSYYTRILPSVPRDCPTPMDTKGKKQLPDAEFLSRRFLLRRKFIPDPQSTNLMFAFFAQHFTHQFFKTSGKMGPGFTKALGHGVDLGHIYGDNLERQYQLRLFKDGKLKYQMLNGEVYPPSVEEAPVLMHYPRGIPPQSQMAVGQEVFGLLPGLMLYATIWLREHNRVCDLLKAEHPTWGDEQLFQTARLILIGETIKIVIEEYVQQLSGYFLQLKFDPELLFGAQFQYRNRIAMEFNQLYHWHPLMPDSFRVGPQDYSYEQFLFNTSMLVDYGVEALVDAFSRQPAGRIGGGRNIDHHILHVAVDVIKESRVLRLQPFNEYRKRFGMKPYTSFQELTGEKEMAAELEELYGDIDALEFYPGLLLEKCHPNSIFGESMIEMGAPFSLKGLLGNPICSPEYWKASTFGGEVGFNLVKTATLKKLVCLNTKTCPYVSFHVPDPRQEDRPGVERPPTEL

Assay [2] deals with Prostaglandin G/H synthase 1 (Homo sapiens, UniProt P23219). As to the kind of experiment: Inhibition of COX1 assessed as TBX2 production in human whole blood. In kind it is functional, tissue-based.
Chain of Prostaglandin G/H synthase 1 (Homo sapiens, UniProt P23219) (P23219 whole entry): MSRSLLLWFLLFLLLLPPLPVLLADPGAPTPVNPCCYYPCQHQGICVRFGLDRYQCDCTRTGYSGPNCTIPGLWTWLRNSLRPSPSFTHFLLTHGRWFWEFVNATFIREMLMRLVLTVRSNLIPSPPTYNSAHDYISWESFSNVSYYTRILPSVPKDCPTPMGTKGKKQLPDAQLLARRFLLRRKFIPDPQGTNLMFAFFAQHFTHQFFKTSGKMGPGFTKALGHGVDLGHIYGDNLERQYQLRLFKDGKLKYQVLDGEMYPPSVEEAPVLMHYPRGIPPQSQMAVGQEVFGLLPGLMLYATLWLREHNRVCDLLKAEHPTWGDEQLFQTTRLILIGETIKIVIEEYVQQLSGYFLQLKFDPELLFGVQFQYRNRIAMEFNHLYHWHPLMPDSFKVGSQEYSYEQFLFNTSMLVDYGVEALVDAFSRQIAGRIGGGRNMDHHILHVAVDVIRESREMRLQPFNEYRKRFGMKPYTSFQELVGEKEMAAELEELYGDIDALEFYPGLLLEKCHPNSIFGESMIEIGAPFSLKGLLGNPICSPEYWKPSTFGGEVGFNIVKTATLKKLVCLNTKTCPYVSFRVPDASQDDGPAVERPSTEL

The structures appear in SMILES notation. Some results are limits rather than exact numbers.

Regarding `CSc1cc(N)ccc1/N=N/c1ccc(S(N)(=O)=O)cc1`, the IC50 was found to be 34.1 µM in assay [1] and 23.3 µM in assay [2].
In the case of `NS(=O)(=O)c1ccc(/N=N/c2ccc(OC(=O)Nc3ccccc3)c(OC(=O)Nc3ccccc3)c2)cc1`, the IC50 in assay [2] is 35.1 µM.
In the case of `COc1ccc(/N=N/c2ccc(S(N)(=O)=O)cc2)cc1O`, in assay [2], the IC50 came to 66.4 µM.
For `COc1ccc(/N=N/c2ccc(S(N)(=O)=O)cc2)cc1`, the 50% inhibitory concentration (IC50) in assay [2] is more than 100 µM.
`COc1ccc(/N=N/c2ccc(S(N)(=O)=O)cc2)cc1OC`: the concentration for half-maximal inhibition (IC50) in assay [1] was more than 100 µM; in assay [2], 61.7 µM.
Turning to `CC(C)c1ccc(NC(=O)Oc2ccc(/N=N/c3ccc(S(N)(=O)=O)cc3)cc2OC(=O)Nc2ccc(C(C)C)cc2)cc1`, the half-inhibitory concentration (IC50) in assay [2] came to 26.3 µM.
Still for that read-out and setting: under `COc1cc(/N=N/c2ccc(S(N)(=O)=O)cc2)ccc1O` stands more than 100 µM; under `NS(=O)(=O)c1ccc(/N=N/c2ccc(O)c(Cl)c2)cc1`, 33.3 µM; under `CN(C)c1ccc(/N=N/c2ccc(S(N)(=O)=O)cc2)cc1`, more than 100 µM.
`NS(=O)(=O)c1ccc(/N=N/c2ccc(O)cc2)cc1`: the concentration for half-maximal inhibition (IC50) in assay [2] was more than 100 µM.
Regarding `NS(=O)(=O)c1ccc(/N=N/c2ccc(O)c(O)c2)cc1`, the 50% inhibitory concentration (IC50) in assay [2] was found to be 60 µM.
In assay [1], `Oc1ccc(/C=C/c2cc(O)cc(O)c2)cc1` [RESVERATROL] came in with a concentration for half-maximal inhibition (IC50) of 0.38 µM.
Regarding `NS(=O)(=O)c1ccc(/N=N/c2ccc(O)c(C(=O)O)c2)cc1` [SALAZOSULFAMIDE], the half-maximal inhibitory concentration (IC50) is 29.3 µM in assay [1] and 31.6 µM in assay [2].
